Measurements from publication PMC5908784, “Extracellular loops 2 and 3 of the calcitonin receptor selectively modify agonist binding and efficacy” (Biochemical Pharmacology, 2018).
Positions count from the first letter of the chain named. Where a SMILES comes first, the peptide text is derived from it. Bridges are numbered along the chain shown (N, C = ends).

Key:
Assay in all cases: cAMP accumulation
Type in all cases: cell-based
hCTR V283A = biological target: T1, hCTR V283A (Homo sapiens, UniProt P30988, V283A); settings: mean ± S.E.M.; for Emax: cAMP maximal response, SEM; for EC50: cAMP, CV1-FlpIn cells, 30 min, IBMX
T1 construct: expressed in transfected cells
T1 sequence (P30988 25-474 V283A): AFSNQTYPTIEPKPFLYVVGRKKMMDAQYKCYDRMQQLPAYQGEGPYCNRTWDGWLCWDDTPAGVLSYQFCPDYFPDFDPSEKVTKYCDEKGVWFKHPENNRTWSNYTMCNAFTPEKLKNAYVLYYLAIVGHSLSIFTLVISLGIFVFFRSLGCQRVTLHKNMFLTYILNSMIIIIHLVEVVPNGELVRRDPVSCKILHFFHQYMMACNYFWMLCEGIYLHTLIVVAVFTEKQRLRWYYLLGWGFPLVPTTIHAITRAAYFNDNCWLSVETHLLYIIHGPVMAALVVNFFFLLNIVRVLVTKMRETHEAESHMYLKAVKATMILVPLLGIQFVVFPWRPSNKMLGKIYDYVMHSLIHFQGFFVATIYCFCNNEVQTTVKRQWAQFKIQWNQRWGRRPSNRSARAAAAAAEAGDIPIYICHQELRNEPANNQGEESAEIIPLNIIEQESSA
In short: (§1)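 Concentration-response curves, fitted to a 3-parameter logistic equation, gave EC50 and Emax; these reflect functional affinity, efficacy and stimulus-response coupling combined. Stimulation lasted 30 min with IBMX, and data were scaled to the 100 μM forskolin response.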

hCTR R281A = biological target: T2, hCTR R281A (Homo sapiens, UniProt P30988, R281A); settings: mean ± S.E.M.; for Emax: cAMP maximal response, SEM; for EC50: cAMP, CV1-FlpIn cells, 30 min, IBMX
T2 construct: expressed in transfected cells
T2 sequence (P30988 25-474 R281A): T1 sequence (P30988 25-474 V283A) with R257A, A259V
In short: as §1

hCTR F285A = biological target: T3, hCTR F285A (Homo sapiens, UniProt P30988, F285A); settings: mean ± S.E.M.; for Emax: cAMP maximal response, SEM; for EC50: cAMP, CV1-FlpIn cells, 30 min, IBMX
T3 construct: expressed in transfected cells
T3 sequence (P30988 25-474 F285A): T1 sequence (P30988 25-474 V283A) with A259V, F261A
In short: as §1

hCTR L291A = biological target: T4, hCTR L291A (Homo sapiens, UniProt P30988, L291A); settings: mean ± S.E.M.; for Emax: cAMP maximal response, SEM
T4 construct: expressed in transfected cells
T4 sequence (P30988 25-474 L291A): T1 sequence (P30988 25-474 V283A) with A259V, L267A
In short: as §1

hCTR L368A = biological target: T5, hCTR L368A (Homo sapiens, UniProt P30988, L368A); settings: mean ± S.E.M.; for Emax: cAMP maximal response, SEM; for EC50: cAMP, CV1-FlpIn cells, 30 min, IBMX
T5 construct: c-Myc (N); expressed in transfected cells
T5 sequence (P30988 25-474 L368A): T1 sequence (P30988 25-474 V283A) with A259V, L344A
In short: as §1

SMILES	Emax (hCTR V283A)	Emax (hCTR R281A)	Emax (hCTR F285A)	Emax (hCTR L291A)	Emax (hCTR L368A)	EC50 (hCTR V283A)	EC50 (hCTR R281A)	EC50 (hCTR F285A)	EC50 (hCTR L368A)	EC50 (hCTR L291A; cAMP, CV1-FlpIn cells, 30 min, IBMX)
CC(C)C[C@H](NC(=O)[C@H](CC(N)=O)NC(=O)[C@H](CC(N)=O)NC(=O)[C@H](CO)NC(=O)[C@H](CO)NC(=O)[C@H](CCCNC(=N)N)NC(=O)[C@@H](NC(=O)[C@H](CC(C)C)NC(=O)[C@H](Cc1ccccc1)NC(=O)[C@H](CC(N)=O)NC(=O)[C@H](C)NC(=O)[C@H](CC(C)C)NC(=O)[C@H](CCCNC(=N)N)NC(=O)[C@H](CCC(N)=O)NC(=O)[C@@H](NC(=O)[C@H](C)NC(=O)[C@@H]1CSSC[C@H](NC(=O)[C@@H](N)CCCCN)C(=O)N[C@@H](CC(N)=O)C(=O)N[C@@H]([C@@H](C)O)C(=O)N[C@@H](C)C(=O)N[C@@H]([C@@H](C)O)C(=O)N1)[C@@H](C)O)C(C)C)C(=O)NCC(=O)N1CCC[C@H]1C(=O)N[C@H](C(=O)N[C@@H](CC(C)C)C(=O)N1CCC[C@H]1C(=O)N1CCC[C@H]1C(=O)N[C@H](C(=O)N[C@@H](CC(N)=O)C(=O)N[C@H](C(=O)NCC(=O)N[C@@H](CO)C(=O)N[C@@H](CC(N)=O)C(=O)N[C@H](C(=O)N[C@@H](Cc1ccc(O)cc1)C(N)=O)[C@@H](C)O)C(C)C)[C@@H](C)O)C(C)C [rAmy]	77 ± 10%	63 ± 14%	92 ± 9%	101 ± 13%	95 ± 12%	–	–	–	–	–
CC[C@H](C)[C@H](NC(=O)[C@H](C)NC(=O)[C@@H](NC(=O)[C@H](CCC(N)=O)NC(=O)[C@@H]1CCCN1C(=O)[C@H](Cc1ccccc1)NC(=O)[C@@H](NC(=O)[C@H](Cc1c[nH]cn1)NC(=O)[C@H](Cc1ccccc1)NC(=O)[C@H](CCCCN)NC(=O)[C@H](CC(N)=O)NC(=O)[C@H](Cc1ccccc1)NC(=O)[C@H](CC(=O)O)NC(=O)[C@H](CCC(N)=O)NC(=O)[C@@H](NC(=O)[C@H](Cc1ccc(O)cc1)NC(=O)[C@@H](NC(=O)CNC(=O)[C@H](CC(C)C)NC(=O)[C@H](CCSC)NC(=O)[C@@H]1CSSC[C@H](N)C(=O)NCC(=O)N[C@@H](CC(N)=O)C(=O)N[C@@H](CC(C)C)C(=O)N[C@@H](CO)C(=O)N[C@@H]([C@@H](C)O)C(=O)N1)[C@@H](C)O)[C@@H](C)O)[C@@H](C)O)[C@@H](C)O)C(=O)NCC(=O)N[C@H](C(=O)NCC(=O)N[C@@H](C)C(=O)N1CCC[C@H]1C(N)=O)C(C)C [hCT]	90 ± 7%	117 ± 15%	105 ± 11%	131 ± 5%	70 ± 4%	–	–	–	–	–
CC(C)C[C@H](NC(=O)CNC(=O)[C@H](C)NC(=O)[C@H](CC(C)C)NC(=O)[C@H](CCCNC(=N)N)NC(=O)[C@H](Cc1cnc[nH]1)NC(=O)[C@@H](NC(=O)[C@@H](NC(=O)[C@@H]1CSSC[C@H](NC(=O)[C@H](C)N)C(=O)N[C@@H](CC(=O)O)C(=O)N[C@@H]([C@@H](C)O)C(=O)N[C@@H](C)C(=O)N[C@@H]([C@@H](C)O)C(=O)N1)C(C)C)[C@@H](C)O)C(=O)N[C@@H](CC(C)C)C(=O)N[C@@H](CO)C(=O)N[C@@H](CCCNC(=N)N)C(=O)N[C@@H](CO)C(=O)NCC(=O)NCC(=O)N[C@H](C(=O)N[C@H](C(=O)N[C@@H](CCCCN)C(=O)N[C@@H](CC(N)=O)C(=O)N[C@@H](CC(N)=O)C(=O)N[C@@H](Cc1ccccc1)C(=O)N[C@H](C(=O)N1CCC[C@H]1C(=O)N[C@H](C(=O)N[C@@H](CC(N)=O)C(=O)N[C@H](C(=O)NCC(=O)N[C@@H](CO)C(=O)N[C@@H](CCCCN)C(=O)N[C@@H](C)C(=O)N[C@@H](Cc1ccccc1)C(N)=O)C(C)C)[C@@H](C)O)C(C)C)C(C)C)C(C)C [hαCGRP]	130 ± 19%	114 ± 25%	122 ± 18%	101 ± 36%	78 ± 12%	12.9 nM	38.9 nM	15.8 nM	11.5 nM	–
CC(C)C[C@H](NC(=O)[C@H](CCCCN)NC(=O)CNC(=O)[C@H](CC(C)C)NC(=O)[C@@H](NC(=O)[C@@H]1CSSC[C@H](N)C(=O)N[C@@H](CO)C(=O)N[C@@H](CC(N)=O)C(=O)N[C@@H](CC(C)C)C(=O)N[C@@H](CO)C(=O)N[C@@H]([C@@H](C)O)C(=O)N1)C(C)C)C(=O)N[C@@H](CO)C(=O)N[C@@H](CCC(N)=O)C(=O)N[C@@H](CCC(=O)O)C(=O)N[C@@H](CC(C)C)C(=O)N[C@@H](Cc1c[nH]cn1)C(=O)N[C@@H](CCCCN)C(=O)N[C@@H](CC(C)C)C(=O)N[C@@H](CCC(N)=O)C(=O)N[C@H](C(=O)N[C@@H](Cc1ccc(O)cc1)C(=O)N1CCC[C@H]1C(=O)N[C@@H](CCCNC(=N)N)C(=O)N[C@H](C(=O)N[C@@H](CC(N)=O)C(=O)N[C@H](C(=O)NCC(=O)N[C@@H](CO)C(=O)NCC(=O)N[C@H](C(=O)N1CCC[C@H]1C(N)=O)[C@@H](C)O)[C@@H](C)O)[C@@H](C)O)[C@@H](C)O [sCT]	116 ± 12%	119 ± 5%	105 ± 8%	108 ± 4%	75 ± 7%	–	–	–	–	–
CSCC[C@H](NC(=O)CNC(=O)[C@H](CO)NC(=O)[C@H](Cc1ccccc1)NC(=O)[C@H](CCCNC(=N)N)NC(=O)[C@H](Cc1c[nH]cn1)NC(=O)[C@H](Cc1ccccc1)NC(=O)[C@H](CC(N)=O)NC(=O)[C@H](CC(N)=O)NC(=O)[C@H](CC(C)C)NC(=O)[C@H](CC(N)=O)NC(=O)[C@H](CCCNC(=N)N)NC(=O)[C@H](Cc1c[nH]c2ccccc12)NC(=O)[C@H](Cc1ccc(O)cc1)NC(=O)[C@H](C)NC(=O)[C@H](CO)NC(=O)[C@H](CC(C)C)NC(=O)[C@@H](NC(=O)[C@@H]1CSSC[C@H](N)C(=O)N[C@@H](CO)C(=O)N[C@@H](CC(N)=O)C(=O)N[C@@H](CC(C)C)C(=O)N[C@@H](CO)C(=O)N[C@@H]([C@@H](C)O)C(=O)N1)C(C)C)C(=O)NCC(=O)N[C@@H](Cc1ccccc1)C(=O)NCC(=O)N1CCC[C@H]1C(=O)N[C@@H](CCC(=O)O)C(=O)N[C@H](C(=O)N1CCC[C@H]1C(N)=O)[C@@H](C)O [pCT] (H-CSNLSTCVLSAYWRNLNNFHRFSGMGFGPETP-NH2; disulfide 1-7)	107 ± 9%	147 ± 16%	81 ± 10%	105 ± 5%	96 ± 6%	0.0316 nM	0.646 nM	0.0501 nM	0.0316 nM	0.316 nM
